Measured values taken from patent US10654802B2, “Indoline derivatives and method for using and producing the same” (ARIZONA BOARD OF REGENTS ON BEHALF OF THE UNIVERSITY OF …, priority 2016, dated 2020).

Assays:
[1] = system: HEK cells stably transfected to overexpress Nox4; test: Cellular viability of HEK/Nox4 cells, CellTiter-Glo Assay; type: cell-based; details: 1 h, FIG. 2C
Procedure: Screening was performed to rule out false positives.
UANoxO48, DMSO (vehicle control), or catalase (known H2O2 scavenger positive control) was added to a cell-free assay containing exogenous H2O2(5 mM) and scavenger activity for H2O2 was assessed by (FIG. 2A) Amplex Red assay and (FIG. 2B) ROS-Glo assay (an HRP-free assay system to rule out assay interference). (FIG. 2C) HEK cells stably transfected to overexpress Nox4 were treated with UANox048, digitonin (an inducer of cell death), or DMSO (vehicle control) and incubated for 1 h. Cellular viability was evaluated by CellTiter-Glo Assay. Values represent means±SEM; n=4; P values were calculated by student's two-tailed t test. *p<0.05, **p<0.01, *** p<0.001.

Nox4 = target: T1, Nox4 (Homo sapiens, UniProt Q9NPH5); test: Inhibition of Nox4-dependent H2O2 production in HEK/Nox4 cells, Amplex Red assay; type: cell-based
T1 construct: expressed in transfected cells
T1 sequence (Q9NPH5 1-578): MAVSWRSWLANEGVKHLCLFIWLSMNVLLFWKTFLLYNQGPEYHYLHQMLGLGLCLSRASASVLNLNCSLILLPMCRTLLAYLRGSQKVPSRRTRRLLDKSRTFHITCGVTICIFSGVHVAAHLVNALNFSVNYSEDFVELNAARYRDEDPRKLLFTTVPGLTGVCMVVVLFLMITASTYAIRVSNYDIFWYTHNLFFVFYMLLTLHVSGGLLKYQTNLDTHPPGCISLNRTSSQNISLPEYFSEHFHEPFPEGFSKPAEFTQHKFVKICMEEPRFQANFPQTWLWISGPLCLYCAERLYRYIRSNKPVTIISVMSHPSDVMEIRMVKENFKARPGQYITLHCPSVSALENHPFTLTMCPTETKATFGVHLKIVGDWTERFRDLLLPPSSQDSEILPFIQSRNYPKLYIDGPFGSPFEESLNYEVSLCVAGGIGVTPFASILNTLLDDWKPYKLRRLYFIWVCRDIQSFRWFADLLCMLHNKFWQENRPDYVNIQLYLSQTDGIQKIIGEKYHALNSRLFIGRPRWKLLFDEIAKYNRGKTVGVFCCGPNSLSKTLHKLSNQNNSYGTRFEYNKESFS
T1 sequence (P13498 1-195 partner): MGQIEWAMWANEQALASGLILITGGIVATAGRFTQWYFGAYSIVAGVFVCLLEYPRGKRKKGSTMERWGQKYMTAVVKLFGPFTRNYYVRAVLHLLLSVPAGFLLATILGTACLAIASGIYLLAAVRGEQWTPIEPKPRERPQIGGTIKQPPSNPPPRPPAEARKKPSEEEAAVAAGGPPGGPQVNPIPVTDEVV
Procedure: A high-throughput screening (HTS) assay was established for Nox4 inhibition, utilizing HEK293 cells that stably over-express Nox4 (HEK/Nox4 cells), which generate high levels of H2O2(Cheng G et al, Gene: 2001, p. 131-140). Over 30,000 compounds have been screened and medicinal chemistry efforts have led to the synthesis of numerous analogs and the identification of a chemically distinct series of selective Nox4 inhibitors. […] IC-50 was evaluated for UANox048 (FIG. 1B).
HEK cells stably transfected to overexpress Nox4 were treated with varying concentrations of test compounds, DPI (all-Nox inhibitor positive control), or DMSO (vehicle control) and incubated for 1 h (FIG. 1). (FIG. 1A) H2O2 presence was evaluated by Amplex Red assay. […] Values represent means±SEM; n=4. P values were calculated by student's two-tailed t test. *p<0.05, **p<0.01, *** p<0.001.

P-glycoprotein = target: T2, P-glycoprotein (Homo sapiens, UniProt P08183); test: P-glycoprotein efflux susceptibility in Caco-2 monolayers; type: in vitro ADME; details: apical-to-basolateral vs basolateral-to-apical
T2 construct: endogenous in cells; host or cells: Caco-2
T2 sequence (P08183 whole entry): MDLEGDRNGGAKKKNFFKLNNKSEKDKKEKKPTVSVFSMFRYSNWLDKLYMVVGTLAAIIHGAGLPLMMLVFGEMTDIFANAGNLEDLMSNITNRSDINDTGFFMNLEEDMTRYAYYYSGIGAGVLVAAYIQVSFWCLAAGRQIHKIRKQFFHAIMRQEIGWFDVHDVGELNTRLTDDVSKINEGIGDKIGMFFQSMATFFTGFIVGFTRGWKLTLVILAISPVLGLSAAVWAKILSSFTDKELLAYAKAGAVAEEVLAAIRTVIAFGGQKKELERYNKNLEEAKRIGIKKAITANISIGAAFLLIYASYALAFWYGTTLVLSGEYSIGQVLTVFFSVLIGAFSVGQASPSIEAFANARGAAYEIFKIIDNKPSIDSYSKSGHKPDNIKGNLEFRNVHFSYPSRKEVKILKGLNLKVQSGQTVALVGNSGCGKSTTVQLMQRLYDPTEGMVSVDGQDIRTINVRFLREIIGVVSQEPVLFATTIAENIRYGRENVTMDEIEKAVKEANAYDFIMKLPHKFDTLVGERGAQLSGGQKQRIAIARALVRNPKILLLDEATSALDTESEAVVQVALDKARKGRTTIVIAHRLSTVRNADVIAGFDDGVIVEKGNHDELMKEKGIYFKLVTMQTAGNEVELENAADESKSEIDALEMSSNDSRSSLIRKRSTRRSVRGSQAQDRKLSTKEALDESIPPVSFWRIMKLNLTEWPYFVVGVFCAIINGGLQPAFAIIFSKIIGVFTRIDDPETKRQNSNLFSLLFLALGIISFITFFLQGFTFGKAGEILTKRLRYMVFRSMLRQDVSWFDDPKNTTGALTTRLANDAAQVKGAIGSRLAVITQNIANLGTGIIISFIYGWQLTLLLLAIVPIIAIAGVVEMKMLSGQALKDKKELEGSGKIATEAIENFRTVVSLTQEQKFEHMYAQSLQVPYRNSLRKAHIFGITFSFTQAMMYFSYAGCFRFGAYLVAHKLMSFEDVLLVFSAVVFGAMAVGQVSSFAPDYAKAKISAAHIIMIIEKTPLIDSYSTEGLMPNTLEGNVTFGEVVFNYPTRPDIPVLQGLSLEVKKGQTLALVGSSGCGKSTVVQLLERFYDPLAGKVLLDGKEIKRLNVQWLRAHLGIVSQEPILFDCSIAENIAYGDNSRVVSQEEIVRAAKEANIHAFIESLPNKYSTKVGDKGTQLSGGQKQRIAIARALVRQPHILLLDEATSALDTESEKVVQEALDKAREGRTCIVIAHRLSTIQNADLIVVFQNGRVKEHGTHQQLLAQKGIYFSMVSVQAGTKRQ
Procedure: (§1) In vitro absorption, distribution, metabolism, and excretion (ADME) were performed on selected analogs to assess their potential for continued pre-clinical development. UANox048 analog has favorable pharmacokinetic/pharmacodynamics properties, including a low molecular weight (384.4 g/mol), calculated log D value (4.07), and polar surface area (57.8 Å^2). The compounds were tested for cellular permeability and P-glycoprotein efflux susceptibility (P-gp efflux). […] P-gp efflux was calculated by comparing permeability through Caco-2 monolayers in both the apical-to-basolateral and basolateral-to-apical directions. Permeability for Caco-2 cells was determined by the lucifer yellow monolayer integrity test. Caco-2 cells were incubated with UANox048 (5 μM, 2 h) and flux of lucifer yellow across cell monolayers was determined by LC-MS/MS using electrospray ionization. Molecular weight, log D, and polar surface area calculations were performed with ChemDraw software.

Caco-2 cells = test: Caco-2 permeability; type: in vitro ADME; details: 5 μM, 2 h
Procedure: as §1

[2] = Differential scanning calorimetry (DSC) thermal stability; type: physicochemical; details: solid state; room and body temperatures (32-37° C.)
Description: Differential scanning calorimetry (DSC) was used, a highly sensitive thermos-analytical technique to quantify the thermotropic properties and phase transitions of drug candidates. […] X-ray powder diffraction (XRPD) is a non-destructive material science “gold standard” method for measuring the degree of long-range molecular order in the powder. This is critical for solid-state characterization, where drug candidates yield a unique pattern for any given crystalline phase; this provides a ‘molecular fingerprint’ for crystallinity identification. […] Attenuated Total Reflection Fourier Transform Infrared (ATR-FTIR) Spectroscopy is a non-destructive molecular identification tool based on the absorption of infrared light by vibrational transitions in covalent bonds. This provides a ‘molecular fingerprint’ for chemical identification. ATR-FTIR permits fine discrimination between like materials and/or batch-to-batch quality verification; it is used to identify active pharmaceutical ingredients (API). […] Scanning Electron Microscopy (SEM) with Energy Dispersive X-ray (EDX) is used to visualize the synthesized particles in their native solid-state and quantify important particle properties which directly influence formulation, including surface structure, particle morphology and size, and particle size range distribution. […]

CC(CNS(=O)(=O)c1ccc(C(F)(F)F)cc1)N1CCc2ccccc21 (stereo not drawn) [UANOX048, N-(2-(indolin-1-yl)propyl)-4-(trifluoromethyl)benzenesulfonamide]
cellular viability [1]: does not affect cellular viability
remaining activity at 1 µM (Nox4; 1 μM final concentration, 1 h, HEK/Nox4 cells, DMSO vehicle = 1.000, n = 3-10, read-out: H2O2 production relative to vehicle control, Mean): 89.3%
remaining activity at 5 µM (Nox4; 5 μM final concentration, 1 h, HEK/Nox4 cells, DMSO vehicle = 1.000, n = 3-10, read-out: H2O2 production relative to vehicle control, Mean): 76.5%
remaining activity at 10 µM (Nox4; 10 μM final concentration, 1 h, HEK/Nox4 cells, DMSO vehicle = 1.000, n = 3-10, read-out: H2O2 production relative to vehicle control, Mean): 69.3%
IC50 (Nox4; HEK/Nox4 cells, 1 h, Amplex Red, FIG. 1B): 4.8 µM
H2O2 generation by HEK/Nox4 cells (Nox4; varying concentrations, Amplex Red, FIG. 1A): dose-dependent decrease
P-gp efflux (P-glycoprotein): no P-gp efflux
Caco-2 permeability (Caco-2 cells): high
stability (DSC) [2]: highly stable
